Results on five molecules are retold here after patent publication EP0452935B1, “Chiral 2-(phosphonomethoxy)propyl guanines as antiviral agents” (INSTITUTE OF ORGANIC CHEMISTRY AND BIOCHEMISTRY OF THE …, priority 1990, dated 1991).

Values after ≈ are worked out from the molar mass of the structure shown.

In general, IC50 refers to the concentration that gives 50% inhibition. Read a high IC50 as weaker potency. A word on the CC50: it is the concentration giving 50% cytotoxicity. Low readings indicate greater toxicity to the cells, high ones lower toxicity to the cells.

Holding throughout (type): cell-based
Data set [1] concerns human immunodeficiency virus (LAVBRU strain). Kind of data set: anti-HIV XTT assay in infected CEM-SS cells. The following applies: for anti-HIV activity (in words): XTT assay (FIGS. 4, 6, 7); for EC50: infected CEM-SS cells, XTT assay, day 7 post-infection, viable cells increased to 50% of uninfected control, NA = Not active at concentrations up to 500 µM, read-out: ED50 (the source's name); for SI: Selectivity Index: Ratio of TD50 to ED50, CEM-SS cells, 10080 min. On the procedure: (§1) Compounds were evaluated for activity against human immunodeficiency virus (LAVBRU strain obtained from Luc Montagnier, Institut Pasteur, Paris, France) in CEM-SS cells (P. L. Nara et al., in AIDS Res. Human. Retroviruses, 1987, 3, 283-302) or in MT-4 cells (S. Harada, et al., in Science, 1985, 229, 563-566) using the XTT assay described by O. S. Weislow et al., in J. Natl. Cancer Instit., 1989, 81, 577-586. CEM-SS cells were obtained from Owen Weislow at the National Cancer Institute, and MT-4 cells were obtained from Doug Richman at the University of California at San Diego. Cells were exposed to HIV and cultured in microtiter plates in the presence of test compounds at concentrations of 0.0013, 0.0064, 0.032, 0.16, 0.8, 4, 20, 100, and 500 »M. On day 7 post-infection, the antiviral effect was measured using the XTT assay in which an optical density (OD) reading is obtained at each drug concentration. The optical density reading is proportional to the number of viable cells. Assays run in infected cells show the antiviral effect of the test compounds, where an increase in the number of viable cells (higher OD reading) reflects the protective, antiviral activity of the compound. Assays run in uninfected cells provide a measure of cellular toxicity. The antiviral effect is also expressed (see Table 2) as the concentration of compound which increases the number of viable cells in infected cultures to 50%, that of the untreated, uninfected control cultures (ED₅₀). The cellular toxicity is expressed as the concentration of compound which reduces the number of viable cells to 50%, that of the untreated control (TD₅₀). The selectivity index (SI) is the ratio of TD₅₀ to ED₅₀. The anti-HIV activity and cellular toxicity of the test compounds are plotted in FIGS. 1-7 as a function of optical density verus increasing log concentrations of the test compounds (XTT assay).
Background: Tetrazolium dyes change colour on reduction, which living cells bring about.

In data set [2] the test system is herpes simplex virus Type 2 (HSV-2). Kind of data set: plaque reduction assay, HSV-2 in vero cells. The following applies: Human alphaherpesvirus 2, G strain, 48 hour incubation. How it is done:
(§2) The compounds were evaluated for antiviral activity in vitro by the standard plaque reduction assay. Experiments were conducted with vero cells (African Green Monkey Kidney cells) infected with herpes simplex virus Type 1 (HSV-1) [BW^s strain, C. D. Sibrack et al., Infect. Dis., 1982, 146, 673] and herpes simplex virus Type 2 (HSV-2) [G strain, obtained from American Tissue Culture Collection, Rockville, MD] and with MRC-5 cells (human embryonic lung (diploid) cells) infected with human cytomegalovirus (HCMV) [AD169 strain, obtained from American Tissue Culture Collection, Rockville, MD]. Briefly, confluent cell monolayers in 24-well plates were infected with 30-50 plaque-forming units of virus in 100 »l of phosphate-buffered saline. After a 1 hour adsorption period, residual inoculum was replaced with 1 mL of the appropriate dilution of the test compound which had been freshly prepared in Eagle's minimal essential medium (EMEM) containing 10% fetal bovine serum. After a 48 hour incubation period at 37°C in a 5% CO₂ atmosphere, cell monolayers were fixed and stained with Carbol fuchsin and plaques were counted. The antiviral potency of the compound was determined by IC₅₀, the inhibitory concentration necessary to reduce the number of plaques by 50% of those in the virus control cultures.

Data set [3] in a line: in vitro. The following applies: human, cem-ss cells. On the procedure: as §1
For data set [4], the system named is human cytomegalovirus (HCMV). Kind of data set: plaque reduction assay, HCMV in MRC-5 cells. The settings on record: Human betaherpesvirus 5, MRC5, AD169 strain. How it is done: as §2
(Plaque reduction counts the foci of infection that form in a cell layer.)

The subject of data set [5] is herpes simplex virus Type 1 (HSV-1). Kind of data set: plaque reduction assay, HSV-1 in vero cells. The settings on record: Human alphaherpesvirus 1, BW^s strain, 48 hour incubation. How it is done: as §2
Data set [6] can be described thus: in vitro. The following applies: human, mt-4 cells. On the procedure: as §1, with “The antiviral effect is also expressed (see Table 2) as the concentration of compound which increases the number of viable cells in infected cultures to 50%, that of the untreated, uninfected control cultures (ED₅₀). The cellular toxicity is expressed as the concentration of compound which reduces the number of viable cells to 50%, that of the untreated control (TD₅₀). The selectivity index (SI) is the ratio of TD₅₀ to ED₅₀. The anti-HIV activity and cellular toxicity of the test compounds are plotted in FIGS. 1-7 as a function of optical density verus increasing log concentrations of the test compounds (XTT assay).” left out

The test system of another data set is CEM-SS cells. Kind of data set: in vitro. On the procedure:
as §1

In data set [7] the test system is human immunodeficiency virus (LAVBRU strain). Kind of data set: anti-HIV XTT assay in infected MT-4 cells. The following applies: MT4 cells, XTT assay (FIG. 2). How it is done:
as §1, with “The antiviral effect is also expressed (see Table 2) as the concentration of compound which increases the number of viable cells in infected cultures to 50%, that of the untreated, uninfected control cultures (ED₅₀). The cellular toxicity is expressed as the concentration of compound which reduces the number of viable cells to 50%, that of the untreated control (TD₅₀). The selectivity index (SI) is the ratio of TD₅₀ to ED₅₀. The anti-HIV activity and cellular toxicity of the test compounds are plotted in FIGS. 1-7 as a function of optical density verus increasing log concentrations of the test compounds (XTT assay).” left out

[8] abbreviates: Human immunodeficiency virus 1, 168 h.

Take `C[C@@H](Cn1cnc2c(=O)[nH]c(N)nc21)OCP(=O)(O)O` [(S)-2'-methyl-PMEG, (S)-9-[2-(phosphonomethoxy)propyl]guanine]: the “anti-HIV activity (in words)” value in data set [1] (CEM-SS cells) is “active”. The EC100 in data set [1] (Human immunodeficiency virus 1, 168 h, CEM-SS cells, XTT assay (FIGS. 3, 5), read-out: concentration giving complete protection from HIV) was 100 µM. In addition, the EC50 in data set [1] (setting [8]) was 12 µM. Moreover, the SI in data set [1] is 25. Besides, the IC50 in data set [2] worked out at 25 µg/mL (≈ 82.4 µM). In “in vitro [3]”, this molecule had a CC50 of 300 µM and an MNTC of less than 100 µM. Besides, half-maximal inhibition in data set [4] (IC50) required 5 µg/mL (≈ 16.5 µM).

For the molecule `Nc1nc2c(ncn2C[C@@H](CO)OCP(=O)(O)O)c(=O)[nH]1` [(S)-HPMPG, (S)-9-[3-hydroxy-2-(phosphonomethoxy)propyl]guanine], in data set [1] (CEM-SS cells), the “anti-HIV activity (in words)” value is “clearly inactive”. Also, the half-maximal inhibitory concentration (IC50) worked out at 8 µg/mL (≈ 25.1 µM) in data set [5], 31 µg/mL (≈ 97.1 µM) in data set [2] and 0.9 µg/mL (≈ 2.82 µM) in data set [4]. The same molecule gave a CC50 in “in vitro [3]” of 350 µM.

On to `C[C@H](Cn1cnc2c(=O)[nH]c(N)nc21)OCP(=O)(O)O` [(R)-2'-methyl-PMEG, (R)-9-[2-(phosphonomethoxy)propyl]guanine], for which, in data set [1] (CEM-SS cells), the “anti-HIV activity (in words)” value is reported as “active”. In data set [1] (setting [8]), the EC50 worked out at 1 µM. The IC50 in data set [2] was determined as 25 µg/mL (≈ 82.4 µM). In the data set “in vitro [3]”, this molecule had a CC50 greater than 500 µM and an MNTC of less than 100 µM. Further, the IC50 in data set [4] is 5 µg/mL (≈ 16.5 µM). The MNTC at 168 h in “in vitro [6]” was less than 100 µM.

On to `Nc1nc2c(ncn2CCOCP(=O)(O)O)c(=O)[nH]1` [PMEG, 9-[2-(phosphonomethoxy)ethyl]guanine], for which the “anti-HIV activity (in words)” value in data set [1] (CEM-SS cells) is “some anti-HIV effect”. Moreover, in data set [1] (setting [8]), the EC50 is 0.2 µM. The SI in data set [1] is on record as 30. Moreover, the figures for the IC50 in data set [5], in data set [2] and in data set [4] were 0.09 µg/mL (≈ 0.311 µM), 0.31 µg/mL (≈ 1.07 µM) and less than 0.1 µg/mL, respectively. In addition, the “cytotoxicity relative to (R)-2'-methyl-PMEG” value in the data set with CEM-SS cells was “approximately 30 fold”. Moreover, in the data set on CEM-SS cells (human, cem-ss cells), half-maximal cytotoxicity (CC50) was put at 15 µM. For the same molecule, in the data set “in vitro [6]”, the MCC at 168 h was greater than 100 nM. For the same molecule, the “anti-HIV effect (in words)” value in data set [7] is “no anti-HIV effect can be measured”.

Take `Nc1nc2c(ncn2C[C@H](CO)OCP(=O)(O)O)c(=O)[nH]1` [(R)-HPMPG, (R)-9-[3-hydroxy-2-(phosphonomethoxy)propyl]guanine]: in data set [1] (CEM-SS cells), the “anti-HIV activity (in words)” value is “clearly inactive”. Moreover, the EC50 in data set [1] (setting [8]) turned out to be 500 µM. For the same molecule, the SI in data set [1] was greater than 1. Further, the figures for the 50% inhibitory concentration (IC50) in data set [5], in data set [2] and in data set [4] were 32 µg/mL (≈ 100 µM), 32 µg/mL (≈ 100 µM) and 0.5 µg/mL (≈ 1.57 µM), respectively. This molecule yielded a CC50 in “in vitro [3]” greater than 500 µM.
